{"source": "patent US8609135B2", "about": "“Anthracycline derivatives” (Nuclisome AB, priority 2004, dated 2013)", "key": {"[1]": {"test_system": "SKBR-3 cells", "test": "Growth curves of SKBR-3 cells (toxicity)", "format": "cell-based, human", "settings": "SKBR-3 cell monolayers, 0.5 ng/ml, 2.5 h incubation", "description": "Growth curves^125I-Compound 1, Compound 1, doxorubicin, or daunorubicin were dissolved in culture media to a concentration of 0.5 ng/ml. The specific activity of ^125I-Compound 1 was 100 kBq/ng. SKBR-3 cells were incubated with drug in 60 mm plastic Petri dishes as triplicates, for 2.5 h. Control-cells were incubated with ordinary culture medium. After incubation, the medium was removed from all dishes and cells were washed six times with serum-free medium. Cells were detached from dishes by adding 0.5 ml of trypsin/EDTA for 10 min at a temperature of 37° C. After re-suspension in 1 ml of culture media cells were counted using a coulter counter (Z2 Coulter Counter, Beckman Coulter) and sub-cultivated to 10^5 cells to generate growth curves. Growth curves were corrected for loss of cells at each sub-cultivation."}, "[2]": {"test": "Drug retention in liposomes", "format": "physicochemical", "settings": "incubated in medium at 37° C. for 24 h", "description": "Liposomes were composed of 1,2-distearoyl-sn-glycero-3-phosphatidyl-choline (DSPC), cholesterol, 1,2-distearoyl-sn-glycero-3-phosphatidyl-ethanolamine-N-[methoxy (poly-ethyleneglycol)-2000 (DSPE-PEG2000) at a molar ratio of 57:40:3. Liposomes were prepared by the lipid film hydration method. Briefly, cholesterol and lipids were dissolved in chloroform. The solvent was evaporated under a gentle stream of nitrogen gas and the lipid film was dried under vacuum overnight. The lipid film was hydrated with 300 mM citrate buffer (pH 4) for 1 h with intermediate vortex mixing at a lipid concentration of 20 mM at a temperature of 60° C. Liposomes were repetitively frozen in liquid nitrogen and thawed at a temperature of 60° C. five times before extrusion. Liposomes were extruded ten times through two stacked polycarbonate membranes filters (Whatman Inc. Nucleopore, Newton, Mass.) with a pore size of 100 nm at a room temperature using an Avanti Mini-extruder (Avanti Polar Lipids Inc., Alabaster, Ala.). […]\nLiposomes were incubated at temperatures of 37° C. or 60° C. […] The fluorescence intensity of samples was determined at an excitation wavelength of 468 nm and an emission wavelength of 589 nm. The percentage of encapsulated drug after incubation was determined relative to the amount of encapsulated drug before incubation."}, "[3]": {"test_system": "human tumour A431 cells (squamous carcinoma)", "test": "Binding of 125I-Compound 1 to permealised A431 cells (gamma counter, fluorescence microscopy)", "format": "cell-based", "description": "Human cultured tumour cells […] were grown as monolayer cultures using Ham's F-10 medium (Biochrom AG, Berlin, Germany) containing 10% fetal calf serum, glutamine (2 mM), streptomycin (100 μg/ml), and penicillin (100 IU/ml) at a temperature of 37° C. in a humidified 5% CO2 incubator.\nCultured human tumour A431 cells (squamous carcinoma) were grown on glass slides, cooled to a temperature of 4° C., and washed with phosphate buffer. Cells were inactivated in methanol for 15 minutes at a temperature of −20° C. and then quickly washed at a temperature of 4° C. with phosphate buffer. Cells were thereafter permealised by acetone treatment for 10 seconds at a temperature of 4° C. After drying cells were incubated with ^125I-Compound 1 at room temperature for one hour, washed, and analyzed for radioactivity using a gamma counter (1480 Wallac Wizard, Perkin Elmer, Wellesley, Mass., USA). In addition, cells were inspected by fluorescence microscopy."}, "[4]": {"test_system": "calf thymus DNA (CT DNA)", "test": "Fluorescence titration, binding to calf thymus DNA", "settings": "room temperature, BPES buffer pH 7, n=3", "description": "Type 1 calf thymus DNA sodium salt (Sigma-Aldrich Co., St Louis, M.O., USA) was hydrated in BPES buffer (6 mM Na2HPO4, 2 mM NaH2PO4, 1 mM EDTA, 185 mM NaCl, pH 7) at a concentration of approximately 2 mg/ml and sonicated at approximately 8 μA in a MSE Soniprep 150 ultrasonic disintegrator (Integrated Services TCP Inc., Palisades Park, N.J., USA) for 30 min in a water bath on ice. The sample was then dialyzed for 48 h against BPES using Slide-A-Lyzer® dialysis cassettes (10,000 MWCO) (Pierce, Rockford, Ill., USA). The final DNA concentration was determined spectrophotometrically on a HP8453 spectrophotometer (Hewlett-Packard Company Houston Tex., USA) at a wavelength of 260 nm using an extinction coefficient of 12,824 M (bp)^−1 cm^−1.\nFluorescence titration experiments were performed on a SPEX 1680 Fluorolog spectrofluorometer (SPEX Industries Inc., Edison, N.J., USA) at room temperature with λex=480 nm (slid width 2.5 mm) and λem=592 nm (slid width 2.5 mm). The initial free drug concentration was 1 μM. […] The concentration of bound drug was calculated by the difference between CT and Cf. Binding constants (Ki) and exclusion parameters (n) were calculated by plotting r/Cf versus r (Scatchard plot), where r is the number of moles of bound drug per mol DNA base pairs. Theoretical curves for the neighbor exclusion model were calculated by using the algorithm: r/Cf=Ki(1−nr)[(1−nr)/[1−(n−1)r]]^n−1 (J. Mol. Biol. 86, 469-489, 1974)\nwhere Ki (M^−1) is the intrinsic binding constant and n (base pairs) is the exclusion parameter. The parameters Ki and n were varied to generate theoretical curves that closest fitted the experimental data."}, "[5]": {"test": "Dissolution of drug in 10% (wt/vol) sucrose solution", "format": "physicochemical", "settings": "0.5 mM in 10% (wt/vol) sucrose solution", "description": "Compound 1 (3′-N-(4-hydroxy-3-iodobenzyl)-13-(R/S)-dihydrodaunorubicin, stereoisomeric mixture) and Compound 2 (3′-N-(4-Hydroxy-3-iodobenzyl)daunorubicin), structures are shown below, or doxorubicin (Sigma Aldrich, St. Louis, Mo., USA) were encapsulated into liposomes using the pH-gradient driven loading protocol by Mayer et al. The pH gradient across the liposome membrane was generated by exchanging the extravesicular 300 mM citrate buffer (pH 4) with 20 mM N-[2-hydroxyethyl]piperazine-N′-[2-ethanesulfonic acid] (HEPES) buffered 150 mM saline (HBS) (pH 7.5) on a Sephadex G-50 column. Doxorubicin was dissolved in HBS at a concentration of 1 mM. Compound 1 was dissolved at a concentration of 0.5 mM in 10% (wt/vol) sucrose solution. […] A preheated drug solution was added to the liposomes at a 0.2 drug-to-lipid molar ratio. The mixture was incubated for 15 min at a temperature of 60° C. with intermittent mixing using a Vortex-apparatus resulting in 100% drug encapsulation."}, "[6]": {"test_system": "calf thymus DNA (CT DNA)", "settings": "literature values; cited from earlier work"}, "[7]": {"test_system": "thyroid cancer, lymphomas, bladder carcinomas, sarcomas, ovarian carcinomas, leukemias", "settings": "cited from earlier work"}, "[8]": {"settings": "cited from earlier work"}}, "note": "Where two headings read alike, the source gives them in different places."}
{"smiles": "COc1cccc2c1C(=O)c1c(O)c3c(c(O)c1C2=O)C[C@@](O)(C(C)O)C[C@@H]3O[C@H]1C[C@@H](NCc2ccc(O)c(I)c2)[C@H](O)C(C)O1", "note": "(mixture of isomers) [Compound 1, 3′-N-(4-hydroxy-3-iodobenzyl)-13-(R/S)-dihydrodaunorubicin]", "values": [{"measurement": "cytotoxic effect (growth curves)", "setting": "[1]", "value": "Neither of the latter compounds had any significant cytotoxic effect"}, {"measurement": "drug remaining encapsulated in liposomes", "setting": "[2]", "value": "more than 90%"}, {"measurement": "localisation in cells by fluorescence microscopy", "setting": "[3]", "value": "bound to the cell nucleus and not located inside the cytoplasm"}, {"measurement": "n (exclusion parameter)", "setting": "[4]", "value": 3.4, "unit": "base pairs"}]}
{"smiles": "COc1cccc2c1C(=O)c1c(O)c3c(c(O)c1C2=O)C[C@@](O)(C(C)=O)C[C@@H]3O[C@H]1C[C@@H](NCc2ccc(O)c(I)c2)[C@H](O)C(C)O1", "note": "(some centres unmarked) [Compound 2, 3′-N-(4-Hydroxy-3-iodobenzyl)daunorubicin]", "values": [{"measurement": "n (exclusion parameter)", "setting": "[4]", "value": 3.7, "unit": "base pairs"}, {"measurement": "dissolution of drug", "setting": "[5]", "value": "did not dissolve completely"}]}
{"smiles": "COc1cccc2c1C(=O)c1c(O)c3c(c(O)c1C2=O)C[C@@](O)(C(C)=O)C[C@@H]3O[C@H]1C[C@H](N)[C@H](O)[C@H](C)O1", "note": "[daunorubicin, Daunorubicin]", "values": [{"measurement": "n (exclusion parameter), literature value", "setting": "[6]", "value": 3.5, "unit": "base pairs"}, {"measurement": "cytotoxic effect (growth curves)", "setting": "[1]", "value": "Neither of the latter compounds had any significant cytotoxic effect"}, {"measurement": "n (exclusion parameter)", "setting": "[4]", "value": 3.6, "unit": "base pairs"}]}
{"smiles": "COc1cccc2c1C(=O)c1c(O)c3c(c(O)c1C2=O)C[C@@](O)(C(=O)CO)C[C@@H]3O[C@H]1C[C@H](N)[C@H](O)[C@H](C)O1", "note": "[doxorubicin, Doxorubicin]", "values": [{"measurement": "n (exclusion parameter), literature value", "setting": "[6]", "value": 3.8, "unit": "base pairs"}, {"measurement": "cytotoxic effect (growth curves)", "setting": "[1]", "value": "Neither of the latter compounds had any significant cytotoxic effect"}, {"measurement": "overall response rate", "setting": "[7]; bladder carcinomas", "value": 33, "unit": "%"}, {"measurement": "overall response rate", "setting": "[7]; leukemias", "value": 24, "unit": "%"}, {"measurement": "overall response rate", "setting": "[7]; lymphomas", "value": 41, "unit": "%"}, {"measurement": "overall response rate", "setting": "[7]; ovarian carcinomas", "value": 25, "unit": "%"}, {"measurement": "overall response rate", "setting": "[7]; sarcomas", "value": 26, "unit": "%"}, {"measurement": "overall response rate", "setting": "[7]; thyroid cancer", "value": 45, "unit": "%"}, {"measurement": "drug remaining encapsulated in liposomes", "setting": "[2]", "value": "Approximately 80%"}, {"measurement": "cardiac toxicity up to congestive heart failure, share of patients", "setting": "[8]; patients", "value": "1-10%"}, {"measurement": "side effect alopecia, share of patients", "setting": "[8]; patients", "value": 100, "unit": "%"}, {"measurement": "side effect nausea and vomiting, share of patients", "setting": "[8]; patients", "value": "20-55%"}, {"measurement": "acute dose-limiting toxicity: bone-marrow suppression, leukopenia, and stomatitis, share of treated patients", "setting": "[8]; treated patients", "value": 80, "unit": "%"}, {"measurement": "n (exclusion parameter)", "setting": "[4]", "value": 3.9, "unit": "base pairs"}]}
